Test results from patent publication US4097591A, “N^2 -arylsulfonyl-L-argininamides and the pharmaceutically acceptable salts thereof” (Mitsubishi Chemical Industries Limited, priority 1977, dated 1978).
Like-named read-outs stand apart in the source and are kept apart here.

Target: T1, thrombin (Bos taurus, UniProt P00735)
T1 construct: clotting of bovine fibrinogen
Assay: fibrinogen coagulation time (prolongation by a factor of two)
Assay type: biochemical
Conditions: bovine fibrinogen, thrombin 5 units/ml, pH 7.4, 25° C, read-out: Concentration required to prolong the coagulation time by a factor of two
Method: The measurement of the fibrinogen coagulation time was conducted as follows:
Immediately after mixing, the reaction mixture was transferred from the ice bath to a bath maintained at 25° C. Coagulation times were taken as the period between the time of transference to the 25° C bath and the time of the first appearance of fibrin threads. […] The term "concentration required to prolong the coagulation time by a factor of two" is the concentration of an active ingredient required to prolong the normal coagulation time 50-55 seconds to 100-110 seconds.

[1] = pH 7.4, TABLE 2 (Sample Nos. 1-14, own numbering)
[2] = pH 7.4, first table (Sample Nos. 1-235)

Compound	IC (2-fold clotting time) [1]	IC (2-fold clotting time) [2]
CCCCN(CC(=O)O)C(=O)[C@H](CCCNC(=N)N)NS(=O)(=O)c1ccc(OC)c(Cc2ccccc2)c1 [compound 2]	38 µM	
CCCCN(CC(=O)O)C(=O)[C@H](CCCNC(=N)N)NS(=O)(=O)c1ccc(OC)c(C2CCCCC2)c1 [compound 3, N^2-(3-cyclohexyl-4-methoxyphenylsulfonyl)-L-arginyl-N-butylglycine]	5 µM	
COCCN(CCC(=O)O)C(=O)[C@H](CCCNC(=N)N)NS(=O)(=O)c1ccc2cc(OC)c(OC)cc2c1 [compound 15]		2.5 µM
COc1cc2ccc(S(=O)(=O)N[C@@H](CCCNC(=N)N)C(=O)N(CC(=O)O)Cc3ccccc3)cc2cc1OC [compound 50]		2.5 µM
Cc1ccc2ccc(S(=O)(=O)N[C@@H](CCCNC(=N)N)C(=O)N3CCC(C(C)C)CC3C(=O)O)cc2c1 (stereo partly drawn) [compound 175]		0.1 µM
COc1ccc2ccc(S(=O)(=O)N[C@@H](CCCNC(=N)N)C(=O)N3CCOCC3C(=O)O)cc2c1 (stereo partly drawn) [compound 189]		2 µM
